How the values were obtained:
[1] = system: NRF2 mediated gene NAD(P)H:quinone acceptor oxidoreductase 1 (NQO1) in BEAS-2B cells; test: Beas2B NQO1 mRNA Cell Based Assay; set-up: species or system human; conditions: Homo sapiens; BEAS-2B cells, compound for 24 h; increase in NQO1 mRNA compared to vehicle (0.1% DMSO) control; read-out: EC50
Procedure: Beas2B NQO1 mRNA Cell Based Assay
The up regulation of the NRF2 mediated gene NAD(P)H:quinone acceptor oxidoreductase 1 (NQO1) was measured using the following assay method: BEAS-2B cells (ATCC CRL-9609) were plated in 96-well clear plates at 20,000 cells/well in 75 μL of cell culture media and incubated overnight (37° C., 5% CO2). On day 2, 25 μL of compound or controls were added to the cells for 24 h. On day 3, the medium was aspirated from the plate and the Cells-to-CT™ 1-Step TaqMan® Kit (Ambion A25603) was used to perform expression analysis directly from cultured cells without RNA purification according to the manufacturer's instructions.
Briefly, cells were washed with ice cold PBS and 22.5 μL of room-temperature DNase/Lysis solution was added to the cells and incubated at room temperature for 5 minutes. To stop the reaction, 2.25 μL of stop solution was added to the cell lysate. The samples were diluted 1:5 using nuclease free water and 2.5 μL transferred into the PCR plate. Real-time PCR was performed using the C-1000 Thermal Cycler (Bio-Rad) using human beta actin as the internal control. The cDNA was amplified with a specific primer for NQO1 using the 1-step RT-PCR master mix (Ambion Cells-to-CTTM 1-Step TaqMan® Kit A25603). The primers/probes sets that were used for amplification of cDNA were obtained from TaqMan Gene Expression Assays (Applied Biosystems). The comparative CT (ΔΔCT) relative quantification method was used to calculate the relative mRNA level of the target gene NQO1 as described in the Applied Biosystems Chemistry Guide. The data are expressed as an increase in target gene mRNA compared to vehicle (0.1% DMSO) control and the EC50 values were determined by fitting the data to a four parameter logistic fit using XLfit or XE Runner within ActivityBase.

[2] = target: T1, human KEAP1 (N-term, residues 321-609) (Homo sapiens, UniProt Q14145); test: KEAP1 Kelch Fluorescence Polarization (FP) Assay; type: binding; conditions: inhibition of Kelch domain-NRF2 interaction; 2 nM FITC-labelled NRF2 peptide, 25 nM KEAP1, 1 h room temperature; compounds below 10 nM cannot be differentiated
T1 construct: human KEAP1 (N-term, residues 321-609)
Procedure: KEAP1 Kelch Fluorescence Polarization (FP) Assay Method
Inhibition of the Kelch domain-NRF2 interaction was determined using a fluorescence polarization-based competition assay in a black 384-well microplate. Compounds were tested at a starting concentration of 10 μM serially diluted 1:3 to generate a 12-point dose response curve on the Biomek FX robot. Each well contained 2 nM FITC-labelled NRF2 peptide (FITC-LDEETGEFL-NH2) and 25 nM human KEAP1 (N-term, residues 321-609) enzyme in a final volume of 20 μL of assay buffer (50 mM Tris-HCl pH 8.0, 100 mM NaCl, 5 mM MgCl2, 0.005% Tween-20, 0.005% BSA, 0.5% DMSO) in the presence of varying concentrations of test compound. Unlabelled peptide (LDEETGEFL-NH2) at 50 μM (negative control) and 0.5% DMSO (positive control) was used to determine the assay window.
After 1 h at room temperature, fluorescence polarization (excitation 470 nm/emission 530 nm) was measured using an Envision plate reader. IC50 values were determined by fitting the data to a four parameter logistic fit using XLfit or XE Runner within ActivityBase. The assay limit is such that compounds below 10 nM cannot be differentiated.

T1 sequence (Q14145 321-609): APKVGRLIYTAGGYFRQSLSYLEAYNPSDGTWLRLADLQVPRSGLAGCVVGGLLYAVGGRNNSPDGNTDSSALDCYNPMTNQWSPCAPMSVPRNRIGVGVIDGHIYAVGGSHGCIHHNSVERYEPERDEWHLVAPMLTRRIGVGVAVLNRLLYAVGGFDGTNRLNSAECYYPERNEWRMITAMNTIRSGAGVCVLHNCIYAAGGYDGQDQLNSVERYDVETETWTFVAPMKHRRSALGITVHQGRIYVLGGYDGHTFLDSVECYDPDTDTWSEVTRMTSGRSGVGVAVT

| SMILES | IC50 [2] [nM] | EC50 [1] [nM] |
| --- | --- | --- |
| CNC(=O)[C@H]1CCCC[C@H]1C(=O)N1CCc2c(Cl)ccc(OCc3nnc4ccccn34)c2[C@H]1CN1Cc2ccccc2C1=O [Example 77, (1S,2R)-2-((S)-8-([1,2,4]triazolo[4,3-a]pyridin-3-ylmethoxy)-5-chloro-1-((1-oxoisoindolin-2-yl)methyl)-1,2,3,4-tetrahydroisoquinoline-2-carbonyl)-N-methylcyclohexane-1-carboxamide] | 7.2 | 77 |
| O=C(NCC(F)(F)CO)[C@H]1CCCC[C@H]1C(=O)N1CCc2c(Cl)ccc(OCc3noc4ccccc34)c2[C@H]1CN1CCCC1=O [Example 78, (1S,2R)-2-((S)-8-(benzo[d]isoxazol-3-ylmethoxy)-5-chloro-1-((2-oxopyrrolidin-1-yl)methyl)-1,2,3,4-tetrahydroisoquinoline-2-carbonyl)-N-(2,2-difluoro-3-hydroxypropyl)cyclohexane-1-carboxamide] | 110 | > 10000 |
| CNC(=O)[C@H]1CCCC[C@H]1C(=O)N1CCc2cccc(OCCNC(=O)c3nccs3)c2[C@H]1CN1C(=O)c2ccccc2C1=O [Example 18, N-(2-(((S)-1-((1,3-dioxoisoindolin-2-yl)methyl)-2-((1R,2S)-2-(methylcarbamoyl)cyclo-hexane-1-carbonyl)-1,2,3,4-tetrahydroisoquinolin-8-yl)oxy)ethyl)thiazole-2-carboxamide] | 119 |  |
| COCCNC(=O)[C@H]1CCCC[C@H]1C(=O)N1CCc2cccc(O[C@H]3CCN(C(=O)c4cncs4)C3)c2[C@H]1CN1C(=O)c2ccccc2C1=O [Example 30, (1S,2R)-2-((S)-1-((1,3-dioxoisoindolin-2-yl)methyl)-8-(((S)-1-(thiazole-5-carbonyl)pyrrolidin-3-yl)oxy)-1,2,3,4-tetrahydroisoquinoline-2-carbonyl)-N-(2-methoxyethyl)cyclo-hexane-1-carboxamide] | 215 |  |
| CNC(=O)CCCOc1cccc2c1[C@@H](CN1C(=O)c3ccccc3C1=O)N(C(=O)[C@@H]1CCCC[C@@H]1C(=O)NC)CC2 [Example 2, (1S,2R)-2-((S)-1-((1,3-dioxoisoindolin-2-yl)methyl)-8-(4-(methylamino)-4-oxobutoxy)-1,2,3,4-tetrahydroisoguinoline-2-carbonyl)-N-methylcyclohexane-1-carboxamide] | 339 |  |
| CNC(=O)[C@H]1CCCC[C@H]1C(=O)N1CCc2cccc(O[C@H]3CCN(C(=O)c4csc(C)n4)C3)c2[C@H]1CN1C(=O)c2ccccc2C1=O [Example 24, (1S,2R)-2-((S)-1-((1,3-dioxoisoindolin-2-yl)methyl)-8-(((S)-1-(2-methylthiazole-4-carbonyl)pyrrolidin-3-yl)oxy)-1,2,3,4-tetrahydroisoquinoline-2-carbonyl)-N-methylcyclohexane-1-carboxamide] | 294 |  |
| CNC(=O)[C@H]1CCCC[C@H]1C(=O)N1CCc2cccc(OCCNC(=O)c3noc4ccccc34)c2[C@H]1CN1C(=O)c2ccccc2C1=O [Example 12, N-(2-(((S)-1-((1,3-dioxoisoindolin-2-yl)methyl)-2-((1R,2S)-2-(methylcarbamoyl)cyclo-hexane-1-carbonyl)-1,2,3,4-tetrahydroisoquinolin-8-yl)oxy)ethyl)benzo[d] isoxazole-3-carboxamide] | 56 |  |
| CNC(=O)[C@H]1CCCCN1C(=O)N1CCc2cccc(O[C@H]3CCN(C(=O)c4cncs4)C3)c2[C@H]1CN1C(=O)c2ccccc2C1=O [Example 48] | 728 |  |

Second part, led by results:

| IC50 [2] [nM] | SMILES | EC50 [1] [nM] |
| --- | --- | --- |
| 37 | CNC(=O)[C@@]1(C)CCCC[C@H]1C(=O)N1CCc2c(Cl)ccc(OCc3nnn(C)c3C(F)F)c2[C@H]1CN1CCC(C)C1=O (single isomer, unassigned) [Example 96] | 3190 |
| 9.1 | CNC(=O)[C@H]1CCCC[C@H]1C(=O)N1CCc2c(Cl)ccc(OCc3nnn(C)c3C(F)F)c2[C@H]1CN1CC2(CC2)CC1=O [Example 114, (1S,2R)-2-((S)-5-chloro-8-((5-(difluoromethyl)-1-methyl-1H-1,2,3-triazol-4-yl)methoxy)-1-((6-oxo-5-azaspiro[2.4]heptan-5-yl)methyl)-1,2,3,4-tetrahydroisoquinoline-2-carbonyl)-N-methylcyclohexane-1-carboxamide] | 230 |
| 7.1 | CNC(=O)[C@@]1(C)CCCC[C@H]1C(=O)N1CCc2c(Cl)cc(F)c(OCc3cn(C)nn3)c2[C@H]1CN1CC2(CC2)CC1=O [Example 110, (1S,2R)-2-((S)-5-chloro-7-fluoro-8-((1-methyl-1H-1,2,3-triazol-4-yl)methoxy)-1-((6-oxo-5-azaspiro[2.4]heptan-5-yl)methyl)-1,2,3,4-tetrahydroisoquinoline-2-carbonyl)-N,1-dimethylcyclohexane-1-carboxamide] | 66 |
| 8.9 | CNC(=O)[C@@]1(C)CCCC[C@H]1C(=O)N1CCc2c(Cl)ccc(OCc3nnn(C)c3C(F)(F)F)c2[C@H]1CN1CC2(CC2)CC1=O [Example 97, (1S,2R)-2-((S)-5-chloro-8-((1-methyl-5-(trifluoromethyl)-1H-1,2,3-triazol-4-yl)methoxy)-1-((6-oxo-5-azaspiro[2.4]heptan-5-yl)methyl)-1,2,3,4-tetrahydroisoquinoline-2-carbonyl)-N,1-dimethylcyclohexane-1-carboxamide] | 114 |
| 12 | CNC(=O)[C@@]1(C)CCCC[C@H]1C(=O)N1CCc2c(Cl)ccc(OCc3noc4ccccc34)c2[C@H]1CN1CCCC1=O [Example 83, (1S,2R)-2-((S)-8-(benzo[d]isoxazol-3-ylmethoxy)-5-chloro-1-((2-oxopyrrolidin-1-yl)methyl)-1,2,3,4-tetrahydroisoquinoline-2-carbonyl)-N,1-dimethylcyclohexane-1-carboxamide] | 473 |
| 72 | CNC(=O)[C@H]1CCCC[C@H]1C(=O)N1CCc2c(Cl)ccc(OCc3cccnc3)c2[C@H]1CN1CCCC1=O [Example 60, (1S,2R)-2-((S)-5-chloro-1-((2-oxopyrrolidin-1-yl)methyl)-8-(pyridin-3-ylmethoxy)-1,2,3,4-tetrahydroisoquinoline-2-carbonyl)-N-methylcyclohexane-1-carboxamide] | 650 |
| 7.8 | CNC(=O)[C@@]1(C)CCC[C@H]1C(=O)N1CCc2c(Cl)ccc(OCc3nnn(C)c3C(F)F)c2[C@H]1CN1CCCC1=O [Example 85, (1S,2R)-2-((S)-5-chloro-8-((5-(difluoromethyl)-1-methyl-1H-1,2,3-triazol-4-yl)methoxy)-1-((2-oxopyrrolidin-1-yl)methyl)-1,2,3,4-tetrahydroisoquinoline-2-carbonyl)-N,1-dimethylcyclopentane-1-carboxamide] | 330 |
| 14 | CNC(=O)[C@H]1CCCC[C@H]1C(=O)N1CCc2c(Cl)ccc(OCc3nnc(C)n3C)c2[C@H]1CN1CCCC1=O [Example 86, (1S,2R)-2-((S)-5-chloro-8-((4,5-dimethyl-4H-1,2,4-triazol-3-yl)methoxy)-1-((2-oxopyrrolidin-1-yl)methyl)-1,2,3,4-tetrahydroisoquinoline-2-carbonyl)-N-methylcyclohexane-1-carboxamide] | 2420 |
| 17 | CNC(=O)[C@H]1CCCC[C@H]1C(=O)N1CCc2c(Cl)ccc(OCc3ccc4c(C)noc4n3)c2[C@H]1CN1CCCC1=O [Example 71, (1S,2R)-2-((S)-5-chloro-8-((3-methylisoxazolo[5,4-b]pyridin-6-yl)methoxy)-1-((2-oxopyrrolidin-1-yl)methyl)-1,2,3,4-tetrahydroisoquinoline-2-carbonyl)-N-methylcyclohexane-1-carboxamide] | 116 |
